From US8287921B1, “Formulations against cutaneous leishmaniasis” (priority 2011, dated 2012)
≈ marks a conversion by molar mass, not a printed value.

What was measured:
Leishmania promastigotes = test: In vitro leishmanicidal assay; format: cell-based; conditions: 72 hrs, 22-25° C.
Procedure: Leishmania promastigotes were grown in bulk early in modified NNN biphasic medium using normal physiological saline. Leishmania parasite promastigotes were cultured with RPMI 1640 medium (Sigma, St. Louis, USA) supplemented with 10% heat inactivated foetal Calf serum (FCS) (PAA Laboratories GmbH, Austria) Parasites at log phase were centrifuged at 2000 rpm for 10 minutes, and washed three times with saline at same speed and time. Parasites were diluted with fresh culture medium to a final density of 1×10^6 cells/ml.
In a 96-well micro titer plate, medium was added in different wells, 20 μl of the experimental compound was added in medium and serially diluted. 100 μl of parasite culture was added in all wells. Two rows were left for negative and positive control. Negative controls receives medium while the positive control contains varying concentrations of standard antileishmanial compound e.g., Amphotericin B (MP Biomedical Inc.), Pantamidine (ICN Biomedical Inc.). The plate was incubated between 22-25° C. for 72 hrs. […] All assays were run in duplicate (5).

[1] = system: 3T3 cell lines (Normal Fibroblast cell); test: Cytotoxic activity against 3T3 cell lines (MTT assay); format: cell-based, Mouse; conditions: 72 h, 1-100 μg/mL
Procedure: Cytotoxic activity of compounds was evaluated in 96-well flat-bottomed micro plates by using the standard MTT (3-[4,5-dimethylthiazole-2-yl]-2,5-diphenyl-tetrazolium bromide) colorimetric assay1. For this purpose, 3T3 (Mouse fibroblast) were cultured in Dulbecco's Modified Eagle's Medium, supplemented with 5% of foetal bovine serum (FBS), 100 IU/mL of penicillin and 100 μg/mL of streptomycin in 25 cm^3 flask, and kept in 5% CO2 incubator at 37° C. Exponentially growing cells were harvested, counted with haemocytometer and diluted with a particular medium. Cell culture with the concentration of 1×10^5 cells/mL was prepared and introduced (100 μL/well) into 96-well plates. After overnight incubation, medium was removed and 200 μL of fresh medium was added with different concentrations of compounds (1-100 μg/mL). After 72 h, 50 μL MTT (2 mg/mL) was added to each well and incubated further for 4 hrs. Subsequently, 100 μL of DMSO was added to each well. The extent of MTT reduction to formazan within cells was calculated by measuring the absorbance at 570 nm, using a microplate ELISA reader (Spectra Max plus, Molecular Devices, CA, USA). The cytotoxicity was recorded as concentration causing 50% growth inhibition for 3T3 cells.

C[C@@H]1[C@H](O)[C@@H](C)/C=C/C=C/C=C/C=C/C=C/C=C/C=C/[C@H](O[C@@H]2O[C@H](C)[C@@H](O)[C@H](N)[C@@H]2O)C[C@@H]2O[C@](O)(C[C@@H](O)C[C@@H](O)[C@H](O)CC[C@@H](O)C[C@@H](O)CC(=O)O[C@H]1C)C[C@H](O)[C@H]2C(=O)O [Amphotericin B]
In vitro Leishmanicidal activity IC50 ± S.D (Leishmania promastigotes): 0.12 ± 0.10 µg/mL

N=C(N)c1ccc(OCCCCCOc2ccc(C(=N)N)cc2)cc1 [Pentamidine]
IC50 (Leishmania promastigotes; Leishmania, read-out: In vitro Leishmanicidal activity IC50 ± S.D): 5.13 ± 0.02 µg/mL (≈ 15.1 µM)

C[C@@H]1C[C@@H]([C@H](O)CC2CC(=O)NC(=O)C2)C(=O)[C@@H](C)C1 [Cyclohexamide]
IC50 ± S.D. 3T3 cell lines [1]: 0.26 ± 0.04 µg/mL (≈ 0.924 µM)
